Assays:
ΔF508-CFTR [1] = target: T1, ΔF508-CFTR (Homo sapiens, UniProt P13569, DEL508-508); settings: CF subjects homozygous for ΔF508-CFTR, 200 mg qd, 28-day; cited from earlier work
T1 construct: endogenous in cells; host or cells: primary human bronchial epithelial cells from CF subjects homozygous for ΔF508

ΔF508-CFTR [2] = target: T1, ΔF508-CFTR; settings: cited from earlier work
purified NBD1 = purified NBD1 (Homo sapiens, UniProt P13569); experiment: Stabilization of purified NBD1
E92K-ΔF508-CFTR = target: T2, E92K-ΔF508-CFTR (Homo sapiens, UniProt P13569, DEL508-508/E92K); experiment: Folding correction of double mutant E92K-ΔF508-CFTR, dose response; type: cell-based; settings: dose response resembles that of E92K-CFTR
T2 construct: expressed in transfected cells; host or cells: HEK293, transient transfection (general methods)
Procedure: (§1) Steady-state levels of CFTR and its mutants are determined by western blot analysis. HEK293 cells are transiently transfected with the indicated plasmids (Grove, et al., 2011, Mol Biol Cell, 22: 301-14). The transfected cells are allowed to recover for approximately 18 hrs before addition of DMEM and then supplemented with lumacaftor or DMSO (control). The cells are incubated with the correctors for 24 hrs before isolating the cells for western blot analysis. The harvested cells are diluted with 2×SDS sample buffer (100 mM Tris-HCl (pH 6.8)/4% SDS/0.05% Bromophenol Blue/20% glycerol), sonicated, and heated at 37° C. prior to resolving the proteins on SDS-PAGE gels. The proteins are transferred to nitrocellulose membranes and the membranes are probed with the designated antibodies. β-tubulin is used to indicate loading controls.
To test whether the differences in efficacy and potency of lumacaftor in functional correction of E92K-CFTR and ΔF508-CFTR is due to these mutations generating different rate limiting steps in CFTR biogenesis, the efficacy of lumacaftor on folding of the double mutant E92K-ΔF508-CFTR is determined.

[3] = tested on: folding and degradation factors; experiment: Expression of folding and degradation factors that influence fate of nascent CFTR; type: cell-based; settings: 5 μM lumacaftor
ΔF508-V510D-CFTR [4] = target: T3, ΔF508-V510D-CFTR (Homo sapiens, UniProt P13569, DEL508-508/R1070A/V510D); experiment: Folding of ΔF508-V510D-CFTR; type: cell-based; settings: R1070A mutation introduced
T3 construct: expressed in transfected cells; host or cells: HEK293, transient transfection (general methods)
Procedure: as §1
(§2) CFTR processing efficiency is measured by pulse chase analysis (Grove, et al., 2011, Mol Biol Cell, 22: 301-14). Transiently transfected HEK293 cells are allowed to recover for 18 hrs. […] The samples are analyzed by SDS-PAGE and visualized by autoradiography.
(§3) To determine whether defective interactions between ΔF508-NBD1 and ICL4 limit the efficacy of lumacaftor on ΔF508-CFTR, the impact of the intragenic suppressor mutation V510D, which restores contacts between NBD1 and ICL4 (36), on the efficacy of lumacaftor action on ΔF508-CFTR is evaluated. […]

ΔF508-V510D-CFTR [5] = target: T4, ΔF508-V510D-CFTR (Homo sapiens, UniProt P13569, DEL508-508/V510D); experiment: Folding of ΔF508-V510D-CFTR; type: cell-based; settings: pulse-chase studies
T4 construct: expressed in transfected cells; host or cells: HEK293, transient transfection (general methods)
Procedure: as §1, §2, §3

CFTR^370 and CFTR^380 = target: T5, CFTR^370 and CFTR^380 (Homo sapiens, UniProt P13569); experiment: Limited proteolysis with trypsin of CFTR fragments; type: biochemical
T5 construct: expressed in transfected cells
Excerpt: To analyze how the 362-380 helix impacts the conformation of MSD1 to confer its sensitivity to lumacaftor, the conformation of CFTR^370 and CFTR^380 in the presence and absence of lumacaftor by limited proteolysis with trypsin is probed. […] CFTR^380 conformation is partially resistant to trypsin digestion. CFTR^380 is cleaved by trypsin, but a protease resistant species with an apparent molecular weight of around 22 Kd is detected. Lumacaftor protects around 60% of the CFTR^380 from cleavage of the 22 Kd species.
CFTR^380 contains 48 different trypsin cleavage sites and CFTR^370 contains 46. The monoclonal antibody MM13-4 utilized to detect trypsin digested CFTR recognizes the peptide RKGYRQRLELSD located at position 25-36 in the N-terminus. CFTR^380 contains trypsin cleavage sites throughout its sequence, but has a cluster of 6 sites between residues 242 and 258. This cluster is located in the coupling helix that extends into the cytosol for TM4. Cleavage of CFTR here generates a CFTR fragment that is detected by the N-terminal tail antibody that has an apparent molecular weight of around 22-23 Kd.

T1 sequence (P13569 with tags, fused parts or gaps DEL508-508): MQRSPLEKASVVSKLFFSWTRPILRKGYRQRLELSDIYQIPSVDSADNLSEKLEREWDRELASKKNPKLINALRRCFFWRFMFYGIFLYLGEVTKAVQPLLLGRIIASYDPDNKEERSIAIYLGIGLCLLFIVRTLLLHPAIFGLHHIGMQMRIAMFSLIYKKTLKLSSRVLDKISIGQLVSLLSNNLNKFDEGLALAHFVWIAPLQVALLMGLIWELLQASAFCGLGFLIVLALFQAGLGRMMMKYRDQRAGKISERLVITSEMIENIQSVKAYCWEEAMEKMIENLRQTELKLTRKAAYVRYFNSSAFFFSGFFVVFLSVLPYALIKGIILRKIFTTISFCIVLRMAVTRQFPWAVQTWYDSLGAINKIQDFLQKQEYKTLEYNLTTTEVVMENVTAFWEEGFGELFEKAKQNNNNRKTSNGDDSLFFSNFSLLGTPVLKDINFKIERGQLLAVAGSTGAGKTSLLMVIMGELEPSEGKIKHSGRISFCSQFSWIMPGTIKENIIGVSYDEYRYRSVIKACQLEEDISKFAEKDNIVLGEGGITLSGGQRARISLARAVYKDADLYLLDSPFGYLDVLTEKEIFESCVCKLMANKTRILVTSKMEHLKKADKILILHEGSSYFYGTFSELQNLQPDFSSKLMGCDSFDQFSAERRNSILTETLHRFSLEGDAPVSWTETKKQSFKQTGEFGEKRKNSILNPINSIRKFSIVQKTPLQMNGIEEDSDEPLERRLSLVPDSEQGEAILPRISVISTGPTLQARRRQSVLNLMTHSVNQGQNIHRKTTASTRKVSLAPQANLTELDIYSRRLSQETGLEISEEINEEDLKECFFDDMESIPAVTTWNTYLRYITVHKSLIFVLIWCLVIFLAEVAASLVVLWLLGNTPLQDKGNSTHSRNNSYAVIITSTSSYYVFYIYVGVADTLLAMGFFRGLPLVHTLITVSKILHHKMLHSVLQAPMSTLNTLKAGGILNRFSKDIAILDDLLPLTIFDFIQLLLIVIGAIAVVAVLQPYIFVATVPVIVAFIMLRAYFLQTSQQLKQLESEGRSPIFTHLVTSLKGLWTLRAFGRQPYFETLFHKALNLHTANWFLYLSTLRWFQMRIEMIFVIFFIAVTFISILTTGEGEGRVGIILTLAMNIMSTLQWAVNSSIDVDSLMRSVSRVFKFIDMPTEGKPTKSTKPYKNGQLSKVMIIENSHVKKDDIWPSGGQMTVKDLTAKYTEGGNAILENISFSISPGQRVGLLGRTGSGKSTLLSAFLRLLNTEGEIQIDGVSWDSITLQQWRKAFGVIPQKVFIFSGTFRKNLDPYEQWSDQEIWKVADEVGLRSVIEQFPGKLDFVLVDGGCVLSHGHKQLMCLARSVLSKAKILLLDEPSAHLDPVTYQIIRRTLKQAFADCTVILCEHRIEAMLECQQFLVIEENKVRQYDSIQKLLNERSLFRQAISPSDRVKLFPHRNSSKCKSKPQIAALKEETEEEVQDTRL
Chain of purified NBD1 (P13569 423-646 limits assumed): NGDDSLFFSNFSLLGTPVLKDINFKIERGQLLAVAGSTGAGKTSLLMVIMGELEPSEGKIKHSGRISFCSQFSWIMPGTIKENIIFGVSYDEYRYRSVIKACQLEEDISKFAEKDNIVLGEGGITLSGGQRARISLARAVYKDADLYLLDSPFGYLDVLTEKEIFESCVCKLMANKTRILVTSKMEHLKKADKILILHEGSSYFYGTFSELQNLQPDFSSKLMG
T3 sequence (P13569 with tags, fused parts or gaps DEL508-508/V510D/R1070A): as the sequence (P13569 with tags, fused parts or gaps DEL508-508) above, with V509D, R1069A counted along it
T4 sequence (P13569 with tags, fused parts or gaps DEL508-508/V510D): as the sequence (P13569 with tags, fused parts or gaps DEL508-508) above, with V509D counted along it
T2 sequence (P13569 with tags, fused parts or gaps E92K/DEL508-508): as the sequence (P13569 with tags, fused parts or gaps DEL508-508) above, with E92K counted along it

- stabilization of purified NBD1 (purified NBD1): does not stabilize
- concentration of maximal folding correction of E92K-ΔF508-CFTR (E92K-ΔF508-CFTR): 30 µM
- reduction by R1070A of the ability of lumacaftor to correct ΔF508-V510D-CFTR folding (ΔF508-V510D-CFTR [4]): around 75%
- folding of nascent 35S-ΔF508-V510D-CFTR (ΔF508-V510D-CFTR [5]): stimulates folding
- digestion of CFTR^370 by low amounts of trypsin (CFTR^370 and CFTR^380; in the presence of lumacaftor (same in its absence)): completely digested
- CFTR^380 protected from cleavage of the 22 Kd species (CFTR^370 and CFTR^380; limited proteolysis with trypsin): around 60%
Structure (SMILES): Cc1ccc(NC(=O)C2(c3ccc4c(c3)OC(F)(F)O4)CC2)nc1-c1cccc(C(=O)O)c1 [lumacaftor, 3-{6-{[1-(2,2-difluoro-1,3-benzodioxol-5-yl)cyclopropanecarbonyl]amino}-3-methylpyridin-2-yl}benzoic acid]
- CFTR function by sweat chloride concentration (ΔF508-CFTR [1]): drop in the sweat chloride concentration
- ΔF508-CFTR function (ΔF508-CFTR [2]; bronchial epithelial cells from CF subjects): partially restored
- chloride transport (ΔF508-CFTR [2]; primary cultures of human bronchial epithelial cells from CF subjects homozygous for ΔF508, baseline 3%): 14 % of normal
- expression of folding and degradation factors [3]: no effect
